Assay [1] relates to human breast cancer cell line MD-MBA-231. Put plainly: Bioactivity-guided percent apoptosis, Annexin V/Propidium iodide FACS, 48-h incubation. It is filed as cell-based. The arrangement: key: % of cells (Annexin V/PI FACS). The note with it: Table E5; Dose 100. The protocol:
Apoptosis was evaluated against human breast cancer cell line MD-MBA-231. Cells were maintained in RPMI 1640 medium (PAA Laboratories GmbH, Teddington Middlesex, UK) supplemented with 10% heat-inactivated tetracycline-free fetal calf serum (PAA Laboratories) and 2 mM L-glutamine, 100 units/ml penicillin, and 100 μg/ml streptomycin (Gibco, Grand Island, N.Y.). Cells were propagated and cultured at 37° C. in a 100% relative humidified atmosphere consisting of 5% C02 and 95% air. Cells were trypsinized with 0.05% Trypsin-0.2% EDTA (w/v) solution.
The bioactivity-guided isolation of the compounds was performed using percent apoptosis in human breast cancer cells (cell line MD-MBA-231) as the reporter. Cells were seeded in a standard 24-well microtiter plate at a density of 1.5×10^4 cells/well in […] tissue culture medium. After a 24-h incubation period cells were treated with individual fractions from the wood of Guaiacum officinale L. Test compounds were mixed in solution using DMSO as vehicle (10 μg extract/1 ml DMSO), at 30 μl. Following a 48-h incubation period, the induction of apoptosis in cell cultures was analyzed by fluorescence-activated cell sorter (FACS Caliber Becton Dickinson, San Jose, Calif.), double staining with Annexin V/Propidium iodide.
Three fractions were chosen for further evaluation based on their apoptotic activity, yields, and simplicity of their HPLC profiles. Fraction 5 was obtained by combining F5 and F6, and fraction 13 by combining fractions 13 and 14. Fraction 8 was not combined with any other. Combinations were based on TLC profiles, (FIG. 17). The percent apoptosis was calculated by using Annexin V/FITC staining and flow cytometry (Table E4).

The subject of assay [2] is Human breast cancer cell line MB-MDA-231. The assay can be described thus: Annexin V FITC / PI apoptosis detection by flow cytometry, 24 h. The note with it: 24 h; for early stage apoptosis, FITC (+)/PI (−) staining, significance: 1.2, 6.0, 30.0 ppm. The class given is cell-based. As for the experimental part:
Human breast cancer cell line MB-MDA-231 were cultured in Dulbecco's Modified Eagle's medium (DMEM-Sigma, D-5648), supplemented with 10% (heat-inactivated) Fetal Bovine Serum (Atlanta Biologicals, Inc.) and Antibiotic Solution, 100× (Sigma A-9909). Cells were gown at 37° C., at 5-7% CO2, and 95% humidity and were obtained from the American Type Culture Collection (ATCC). Cells were trypsinized with 0.05% Trypsin-0.2% EDTA (w/v) solution (Invitrogen Corporation, Carlsbad, Calif.).
The induction of apoptosis in MB-MDA-231 was analyzed using a well-validated Annexin V FITC apoptosis detection kit (Calbiochem), Darzynkiewicz, 1998. The phosphatidylserine (PS)-specific dye Annexin-V is used to detect apoptotic-specific changes to the organization of phospholipids leading to exposure of PS on the cell surface that precedes nuclear breakdown, DNA fragmentation, and the appearance of most apoptosis-associated molecules. For these studies cells were seeded at 25×10^4 cells/1.5 ml in a 24 well microtiter plate. Cells were allowed to adhere to plates for 24 h, and then exposed to lignans of the present invention at 5-fold dilutions of 30 μl, 6 μl, and 1.2 μl per well for 24 h. Test compounds were mixed in solution using DMSO as vehicle (10 mg extract/1 ml DMSO). Camptothecin was used as a positive control. Following the incubation period 700 μl of suspended cells were transferred to 15 ml conical tubes. Cells that remained adhered to the 24-well plates were gently washed with PBS (137 mM NaCl, 2.7 mM KCL, 4.3 mM Na2HPO4-7H2O, 1.4 mM KH2PO4, adjusted to pH 7.4), trypsinized with 1 ml of solution (0.05% Trypsin—0.2% EDTA [w/v]), and resuspended with the suspended cells/media collected in the 15 ml conical tubes from the previous step. 10 μl of media-binding reagent and 1.25 μl Annexin V-FITC was added to the 15 ml conical tubes containing both the 700 μl of suspended cells and the resuspended cells and incubated at room temperature for 15 min, at 18-24° C., in the dark. Tubes were centrifuged for 5 minutes at 1000×g at room temperature. Media was removed and cells were gently resuspended in 0.5 ml cold 1×binding buffer (dilution; 5× Binding Buffer concentrate 1:5 with dH2O) and placed on ice. 10 μl of propidium iodide was added to each tube. Cells were placed on ice away from light and analyzed immediately by flow cytometry. The dual fluorescence emissions of the respective dyes were detected in cell preparations on a BD-Biosciences FACS Aria high-speed flow cytometer/cell sorter utilizing a quartz cuvette for interrogation. To quantify the Annexin V (FL1 at 518 nm) and propidium iodide (620 nm) signals, apoptosis-induced cells (CPT) stained with FITC only and apoptosis-induced cells (CPT) labeled with only propidium iodide were utilized. Necessary adjustments were made to minimize overlap between these two measurements. Typically, 10,000-20,000 cells were scored for each sample and classified as either viable, early apoptotic, or late apoptotic or necrotic. All experiments were repeated at least three times, each in duplicate.
The principal of the Annexin V/FITC assay is that, Annexin V, an anticoagulant protein, preferentially binds negatively charged phospholipids. Early in the apoptotic process, phospholipid asymmetry is disrupted leading to the exposure of phosphatidylserine (PS) on the outer leaflet of the cytoplasmic membrane. Annexin V binds to the negatively charged calcium-dependent PS. Conjugating FITC to Annexin V with simultaneous propidium iodide (PI) staining allows bivariate analysis of intact cells. Live, healthy cells are double negative, FITC (−)/PI (−), and are seen in the lower left quadrant [A3] of FACS cytograms. Cells that are FITC (+)/PI (−) [A4] are early apoptotic. Cell populations that are advanced apoptotic or necrotic are FITC (+)/PI (+) are located in quadrant [A2]. […]

The next assay deals with cell line MD-MBA-231. The assay can be described thus: Cell cycle analysis by DNA content (hypotonic PI staining, flow cytometry). The class given is cell-based, human. The following applies: for % events in sub G0 (apoptotic events) / effect on cell populations in S-phase, significance / effect on cell population in G2/M / singlet count: 1.2, 6.0, 30.0 ppm; for % events in sub G0 (apoptotic events) / effect on cell populations in S-phase, significance / % of cells in S-phase / effect on cell population in G2/M / singlet count: 24 h. The protocol:
Twenty-four hours after exposure to compounds, 25×10^4 cells in 1.5 ml cells were simply re-suspended following either the Annexin V/FITC assay or the trypsin procedures. Cells were centrifuged at 1000-x g at room temperature and washed in 0.5 ml of hypotonic staining solution. Cells were kept a minimum of 30 min. at 4° C. in the dark. Samples were usually analyzed by flow cytometry on the same day or at 24 hrs. Resulting DNA distributions were analyzed for the proportion of cells in apoptosis and in G0/G1, S, and G2/M phases of the cell cycle. Singlet events were gated and 10,000-20,000 events were acquired within the gated region. All experiments were repeated at least three times, each in duplicate.
The cell cycle comprises steps that regulate the correct temporal sequence of events that control the growth, reproduction and differentiation of cells. The cell cycle consists of 4 phases: G0/G1, S (DNA synthesis), G2, and M (mitosis). In addition, checkpoints located in the cell cycle transition ensure that cell growth and division occur in response to appropriate signals and environment. When proliferating, if cells are subjected to DNA damage the cell cycle temporarily pauses either at G1, S or G2 phase. Arrest at these checkpoints prevents DNA replication and mitosis in the presence of unrepaired DNA damage and presumably allows time for DNA repair to occur. The proportion of cells that arrest in G1, S or G2 after damage depends on cell type, growth conditions, type of damage and the checkpoints operative in the cells. Shifts in the redistribution of phases of the cell cycle in response to various stimuli can be readily assessed by flow cytometry. DNA content analysis with the use of PI is one of the most common assays. The use of intercalating dyes to measure DNA content are the most common and are usually sufficient to determine relative shifts in the phases of the cell cycle. The hypotonic solution lyses the plasma membrane and prevents many of the aggregate problems associated with fixed cells. Propidium Iodide(PI) passes through permeabilized cell membranes and intercalates with cellular DNA. Therefore, the intensity of the PI signal is directly proportional to DNA content. DNA content experiments determine the percent induction of apoptosis and relative distribution of the cell cycle phases.
The percent of apoptotic cells (cells with fractional DNA content; sub G1 cells) were established by estimating the percentage of events showing up in sub G0. The Sub-G1 method relies on the fact that after DNA fragmentation, there are small fragments of DNA that may be eluted. However in order to be seen in the Sub G1 area, a cell must have lost enough DNA to appear there; so if cells enter apoptosis from the S or G2/M phase of the cell cycle or if there is an aneuploid population undergoing apoptosis, they may not appear in the Sub G1 peak. The number of events in sub G1 (number of nuclear fragments) provides no information on the # of cells undergoing apoptosis.

The structures appear in SMILES notation.

On to `C=C1[C@@H](c2ccc(O)c(OC)c2)O[C@@H](c2ccc(O)c(OC)c2)[C@]12CCC1=C(C2)[C@@H](c2ccc(O)c(OC)c2)O[C@H]1c1ccc(O)c(OC)c1` [I-b], for which, in assay [1], the Apoptosis turned out to be 81.37 and the Necrosis was 0.41. Also, the “late stage apoptotic cell death count, FITC (+)/PI (+)” value in assay [2] (highest concentration) was 63%. In the assay with cell line MD-MBA-231, the “% events in sub G0 (apoptotic events)” value was “significance at 6 and 30 ppm”; the “effect on cell populations in S-phase, significance” value (shortened to “effect … significance”) is given as “significant decrease in cell populations at the two highest doses”. Further, in the assay with cell line MD-MBA-231 (30 ppm), the “% of cells in S-phase” value is reported as 4.5%.
As for `COc1cc(C[C@@H](C)[C@@H](C)Cc2ccc(O)c(OC)c2)ccc1O` [I-f], in the assay on cell line MD-MBA-231, the “% events in sub G0 (apoptotic events)” value is listed as “no significant increases” and the “effect … significance” value is reported as “did so at 30 ppm”. The “% of cells in S-phase” value in the assay on cell line MD-MBA-231 (30 ppm) was 6%.
For the compound `COc1cc([C@H]2O[C@H](c3ccc(O)c(OC)c3)[C@@H](C)[C@H]2C)ccc1O` [I-e], the “early stage apoptosis, FITC (+)/PI (−) staining, significance” value (from here on “early stage apoptosis, FITC … significance”) in assay [2] was “did not show any significant increases”. Also, in the assay with cell line MD-MBA-231, the “% events in sub G0 (apoptotic events)” value is recorded as “without showing increased number of events in sub G0”; the “effect on cell population in G2/M” value is reported as “significant blockage in G2/M at 30 ppm”; the “effect … significance” value is listed as “significance at the highest concentration”; the singlet count entry is recorded as “approximately equal level of cell death as shown with untreated cells”. In the assay with cell line MD-MBA-231 (highest treatment), the “increase in % events at G2/M over isonectandrin B and nectandrin B” value is given as “approximately 3 fold”; the “increase in % events at G2/M over untreated cells” value came to 8%.
As to `C=C1[C@@H](c2ccc(O)c(OC)c2)O[C@@H](c2ccc(O)c(OC)c2)[C@@]12CCC1=C(C2)[C@@H](c2ccc(O)c(OC)c2)O[C@H]1c1ccc(O)c(OC)c1` [I-a], in assay [1], the Apoptosis is listed as 90.12 and the Necrosis came out at 0.82. In the assay with cell line MD-MBA-231, the “% events in sub G0 (apoptotic events)” value is “strong apoptotic activity at 6.0 ppm, but then declined somewhat at 30 ppm” and the “effect … significance” value is reported as “progressive decrease in % S-phase events with increasing drug concentration”. In addition, in the assay with cell line MD-MBA-231 (30 ppm), the “% of cells in S-phase” value is recorded as less than 3%.
Turning to `COc1cc([C@H]2O[C@@H](c3ccc(O)c(OC)c3)[C@@H](C)[C@H]2C)ccc1O` [I-d], in assay [1], the Apoptosis turned out to be 91.14 and the Necrosis was 0.35. Also, the “early stage apoptosis, FITC … significance” value in assay [2] is reported as “significantly increased”. Besides, the “early apoptosis surpassing that induced by camptothecin” value in assay [2] (6.0 ppm) came out at 10%. Also, the “early apoptosis surpassing that induced by camptothecin” value in assay [2] (30 ppm) was 24%. Besides, in the assay on cell line MD-MBA-231, the “% events in sub G0 (apoptotic events)” value was “increased and significantly induced apoptotic activity at 30.0 ppm”; the “effect on cell population in G2/M” value is given as “lowest accumulation at 30 ppm”; the “effect … significance” value is “significantly inhibited cell populations in S-phase at all doses”; the singlet count result was “significance decreases at all doses”. Further, the “% of cells in S-phase” value with cell line MD-MBA-231 (1.2 ppm) worked out at 8.2%. The “% of cells in S-phase” value in the assay with cell line MD-MBA-231 (6.0 ppm) came out at 4.7%. In addition, in the assay on cell line MD-MBA-231 (30 ppm), the “% of cells in S-phase” value is 0%.
In the case of `COc1cc([C@H]2O[C@@H](c3ccc(O)c(OC)c3)[C@H](C)[C@@H]2C)ccc1O` [I-c], in assay [1], the Apoptosis is on record as 92.9 and the Necrosis amounted to 1.81. For the same compound, the “early stage apoptosis, FITC … significance” value in assay [2] is given as “significantly increased”. Also, the “early apoptosis surpassing that induced by camptothecin” value in assay [2] (30 ppm) was found to be 10%. For the same compound, in the assay with cell line MD-MBA-231, the “% events in sub G0 (apoptotic events)” value was “increased and significantly induced apoptotic activity at 30.0 ppm”; the “effect on cell population in G2/M” value is “significant reduction of cells at 6 and 30 ppm”; the “effect … significance” value is “inhibited cells from entering this stage as well in a concentration-dependent manner”; the singlet count result was “reached minimal levels at 30 ppm”.
